Experimental data reported in ChEMBL document CHEMBL6078647 (J Med Chem, 2024).
Active and inactive are the calls of the source. The calls are words filed in the database; no cut-off is given here.

Legend:
[1] = biological target: T1, Type-1 angiotensin II receptor (Homo sapiens, UniProt P30556); assay: Binding affinity to human AT1R extracted from HEK293T cell membrane assessed as inhibition constant in presence of [125I][Sar1 Ile8]-angiotensin II by competitive radioligand binding assay; type: cell membranes
T1 sequence (P30556 whole entry): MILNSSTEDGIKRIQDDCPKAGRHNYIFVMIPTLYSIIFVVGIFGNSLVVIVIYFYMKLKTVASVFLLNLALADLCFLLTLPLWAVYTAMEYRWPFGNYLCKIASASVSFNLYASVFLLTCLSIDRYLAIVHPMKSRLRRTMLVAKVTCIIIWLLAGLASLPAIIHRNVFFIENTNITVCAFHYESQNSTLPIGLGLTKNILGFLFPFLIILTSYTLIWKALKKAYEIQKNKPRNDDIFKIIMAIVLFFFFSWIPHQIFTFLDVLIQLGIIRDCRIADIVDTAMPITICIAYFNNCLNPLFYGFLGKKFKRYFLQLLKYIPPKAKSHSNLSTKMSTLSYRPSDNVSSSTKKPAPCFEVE

[2] = biological target: T2, Type-2 angiotensin II receptor (Homo sapiens, UniProt P50052); assay: Binding affinity to human AT2R extracted from HEK293T cell membrane assessed as inhibition constant in presence of [125I][Sar1 Ile8]-angiotensin II by competitive radioligand binding assay; type: cell membranes
T2 sequence (P50052 whole entry): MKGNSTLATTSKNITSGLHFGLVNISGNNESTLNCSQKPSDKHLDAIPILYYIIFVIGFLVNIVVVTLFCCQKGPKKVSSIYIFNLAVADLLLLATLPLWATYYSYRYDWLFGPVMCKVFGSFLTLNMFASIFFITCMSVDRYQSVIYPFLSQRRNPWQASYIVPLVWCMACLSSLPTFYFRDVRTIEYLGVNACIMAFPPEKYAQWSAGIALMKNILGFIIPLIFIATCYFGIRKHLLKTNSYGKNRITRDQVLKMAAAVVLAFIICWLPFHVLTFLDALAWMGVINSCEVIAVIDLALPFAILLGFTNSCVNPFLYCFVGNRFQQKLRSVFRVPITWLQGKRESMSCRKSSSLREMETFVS

Homo sapiens [3] = organism: Homo sapiens; assay: Selectivity index, ratio of Ki for binding affinity to human AT2R extracted from HEK293T cell membrane in presence of [125I][Sar1 Ile8]-angiotensin II by competitive radioligand binding assay to Ki for binding affinity to human AT1R extracted from HEK293T cell membrane in presence of [125I][Sar1 Ile8]-angiotensin II by competitive radioligand binding assay
[4] = Fluorescence property of compound in HEPES buffer assessed as quantum yield; type: physicochemical
[5] = biological target: T3, Type-1 angiotensin II receptor (Homo sapiens) (UniProt P30556); assay: Induction of human NLuc-tagged AT1R (unknown origin) internalization in HEK293 cells co expressing venus-MP assessed as inhibition of AgII-induced AT1R internalization using NanoGlo as substrate preincubated for 30 mins followed by substrate addition for 10 mins by BRET assay; type: functional
T3 sequence (whole entry): T1 sequence (P30556 whole entry)

[6] = biological target: T3, Type-1 angiotensin II receptor (Homo sapiens); assay: Binding affinity to human GFP-tagged AT1R (unknown origin) extracted from HEK293 cell membrane assessed as colocalization of AT1R in plasma membrane at 30 nM preincubated with losartan at 10 uM followed by compound addition for 30 mins by epifluorescence microscopic analysis; type: cell membranes; conditions: filed as antagonist
[7] = biological target: T3, Type-1 angiotensin II receptor (Homo sapiens); assay: Binding affinity to Flag-tagged AT1R (unknown origin) extracted from HEK293 cell membrane assessed as increase in median red fluorescence intensity at 1 nM incubated for 15 mins by flow cytometric analysis; type: cell membranes; conditions: filed as antagonist
[8] = biological target: T3, Type-1 angiotensin II receptor (Homo sapiens); assay: Binding affinity to Flag-tagged AT1R (unknown origin) extracted from HEK293 cell membrane assessed as increase in median red fluorescence intensity at > 30 nM incubated for 30 mins by flow cytometric analysis; type: cell membranes
[9] = biological target: T3, Type-1 angiotensin II receptor (Homo sapiens); assay: Binding affinity to GFP-tagged AT1R (unknown origin) extracted from HEK293 cell membrane assessed as fluorescent signal in plasma membrane incubated for 15 mins by confocal microscopic analysis; type: cell membranes; conditions: filed as antagonist
[10] = biological target: T4, Type-2 angiotensin II receptor (Homo sapiens) (UniProt P50052); assay: Binding affinity to GFP-tagged AT2R (unknown origin) extracted from HEK293 cell membrane assessed as fluorescent signal in plasma membrane incubated for 15 mins by confocal microscopic analysis; type: cell membranes
T4 sequence (whole entry): T2 sequence (P50052 whole entry)

[11] = biological target: T1, Type-1 angiotensin II receptor; assay: Binding affinity to GFP-tagged AT1R (unknown origin) extracted from HEK293 cell membrane assessed as dissociation constant; type: cell membranes
[12] = biological target: T1, Type-1 angiotensin II receptor; assay: Antagonist activity at Flag-tagged AT1R (unknown origin) extracted from HEK293 cell membrane co expressing YPET-ARRB1 assessed as beta-arrestin 1 recruitment using NanoGlo as substrate preincubated for 30 mins followed by substrate addition for 10 mins by BRET assay; type: functional, cell membranes
[13] = biological target: T1, Type-1 angiotensin II receptor; assay: Antagonist activity at Flag-tagged AT1R (unknown origin) extracted from HEK293 cell membrane co expressing YPET-ARRB2 assessed as beta-arrestin 2 recruitment using NanoGlo as substrate preincubated for 30 mins followed by substrate addition for 10 mins by BRET assay; type: functional, cell membranes
[14] = biological target: T1, Type-1 angiotensin II receptor; assay: Antagonist activity at Flag-tagged AT1R (unknown origin) extracted from HEK293 cell membrane assessed as increase in intracellular calcium incubated for 30 mins by microplate reader analysis; type: functional, cell membranes
Homo sapiens [15] = organism: Homo sapiens; assay: Selectivity index, ratio of Ki for binding affinity to human AT1R extracted from HEK293T cell membrane in presence of [125I][Sar1 Ile8]-angiotensin II by competitive radioligand binding assay to Ki for binding affinity to human AT2R extracted from HEK293T cell membrane in presence of [125I][Sar1 Ile8]-angiotensin II by competitive radioligand binding assay
[16] = biological target: T3, Type-1 angiotensin II receptor (Homo sapiens); assay: Agonist activity at AT1R (unknown origin) extracted from HEK293 cell membrane coexpressing NLuc and Venus-miniG assessed as miniGq protein recruitment at 1 uM using NanoGlo as substrate preincubated for 30 mins followed by substrate addition for 10 mins by BRET assay; type: functional, cell membranes; conditions: time 40.0 min
Cerebral artery [17] = assay: Vaso-constriction activity in male wistar rat middle cerebral artery assessed as arterial contraction at 1 uM; type: functional, tissue-based
[18] = biological target: T3, Type-1 angiotensin II receptor (Homo sapiens); assay: Binding affinity to human GFP-tagged AT1R (unknown origin) extracted from HEK293 cell membrane assessed as colocalization of AT1R in endocytic vesicles at 100 nM incubated for 30 mins by epifluorescence microscopic analysis; type: cell membranes
[19] = biological target: T4, Type-2 angiotensin II receptor (Homo sapiens); assay: Binding affinity to human GFP-tagged AT2R extracted from HEK293 cell membrane assessed as colocalization of AT2R in plasma membrane at 100 nM incubated for 30 mins by epifluorescence microscopic analysis; type: cell membranes
[20] = biological target: T3, Type-1 angiotensin II receptor (Homo sapiens); assay: Agonist activity at Flag-tagged AT1R (unknown origin) extracted from HEK293T cell membrane co expressing YPET-ARRB1 assessed as beta-arrestin 1 recruitment using NanoGlo as substrate preincubated for 30 mins followed by substrate addition for 10 mins by BRET assay; type: functional, cell membranes; conditions: HEK293, filed as agonist
[21] = biological target: T3, Type-1 angiotensin II receptor (Homo sapiens); assay: Agonist activity at Flag-tagged AT1R (unknown origin) extracted from HEK293 cell membrane co expressing YPET-ARRB1 assessed as beta-arrestin 1 recruitment at 1 uM by measuring maximum efficacy using NanoGlo as substrate preincubated for 30 mins followed by substrate addition for 10 mins by BRET assay; type: functional, cell membranes; conditions: filed as agonist
[22] = biological target: T3, Type-1 angiotensin II receptor (Homo sapiens); assay: Agonist activity at Flag-tagged AT1R (unknown origin) extracted from HEK293 cell membrane co expressing YPET-ARRB2 assessed as beta-arrestin 2 recruitment using NanoGlo as substrate preincubated for 30 mins followed by substrate addition for 10 mins by BRET assay; type: functional, cell membranes; conditions: filed as agonist
[23] = biological target: T3, Type-1 angiotensin II receptor (Homo sapiens); assay: Agonist activity at Flag-tagged AT1R (unknown origin) extracted from HEK293 cell membrane co expressing YPET-ARRB2 assessed as beta-arrestin 2 recruitment at 1 uM by measuring maximum efficacy using NanoGlo as substrate preincubated for 30 mins followed by substrate addition for 10 mins by BRET assay; type: functional, cell membranes; conditions: filed as agonist
[24] = biological target: T3, Type-1 angiotensin II receptor (Homo sapiens); assay: Induction of human NLuc-tagged AT1R (unknown origin) internalization in HEK293 cells co expressing venus-MP using NanoGlo as substrate preincubated for 30 mins followed by substrate addition for 10 mins by BRET assay; type: functional; conditions: filed as agonist
Cerebral artery [25] = assay: Vaso-constriction activity in male wistar rat middle cerebral artery assessed as arterial contraction; type: functional, tissue-based
[26] = biological target: T3, Type-1 angiotensin II receptor (Homo sapiens); assay: Binding affinity to human GFP-tagged AT1R (unknown origin) extracted from HEK293 cell membrane assessed as colocalization of AT1R in endocytic vesicles at 50 nM incubated for 30 mins by epifluorescence microscopic analysis; type: cell membranes; conditions: filed as agonist
[27] = biological target: T4, Type-2 angiotensin II receptor (Homo sapiens); assay: Binding affinity to human GFP-tagged AT2R extracted from HEK293 cell membrane assessed as colocalization of AT2R in plasma membrane at 50 nM incubated for 30 mins by epifluorescence microscopic analysis; type: cell membranes; conditions: filed as agonist
[28] = biological target: T3, Type-1 angiotensin II receptor (Homo sapiens); assay: Agonist activity at Flag-tagged AT1R (unknown origin) extracted from HEK293 cell membrane assessed as increase in intracellular calcium at >100 nM incubated for 30 mins by microplate reader analysis; type: functional, cell membranes; conditions: filed as agonist
[29] = biological target: T4, Type-2 angiotensin II receptor (Homo sapiens); assay: Binding affinity to human GFP-tagged AT2R extracted from HEK293 cell membrane assessed as colocalization of AT2R in plasma membrane at 30 nM incubated for 30 mins by epifluorescence microscopic analysis; type: cell membranes; conditions: filed as agonist
[30] = biological target: T4, Type-2 angiotensin II receptor (Homo sapiens); assay: Binding affinity to GFP-tagged AT2R (unknown origin) extracted from HEK293 cell membrane assessed as increase in median red fluorescence intensity incubated for 15 mins by flow cytometric analysis; type: cell membranes; conditions: filed as agonist

## CCCCc1nc(Cl)c(C(=O)NCCOCCOCCNC(=O)CCCCCN2/C(=C/C=C/C3=[N+](C)c4ccccc4C3(C)C)C(C)(C)c3ccccc32)n1Cc1ccc(-c2ccccc2-c2nn[nH]n2)cc1.F[B-](F)(F)F
[1]; read-out: Ki
  Ki: 10.7 nM
[2]; read-out: Ki
  Ki: 5570 nM
[2]; read-out: pKi (converted)
  Ki: 3020 nM
Homo sapiens [3]
  Ratio Ki: 521
[4]
  Activity: 0.232
[5]
  Activity: Dose-dependent-effect
[6]
  Activity: Active
[7]
  Activity: Active
[8]
  Activity: inactive
[9]
  Activity: Active
[10]
  Activity: inactive
[11]
  Kd: ~30 nM
[12]
  EC50: Active
[13]
  EC50: Active
[14]
  EC50: Active

## CC[C@H](C)[C@H](NC(=O)[C@H](Cc1ccc(O)cc1)NC(=O)[C@@H](NC(=O)[C@H](CCCNC(=N)N)NC(=O)CN(C)C(=O)CCOCCOCCNC(=O)CCCCCN1/C(=C\C=C\C2=[N+](C)c3ccccc3C2(C)C)C(C)(C)c2ccccc21)C(C)C)C(=O)N[C@@H](Cc1c[nH]cn1)C(=O)N1CCC[C@H]1C(=O)N[C@@H](C)C(=O)O
[1]; hek293t
  pKi: < 5
[1]; read-out: Ki
  Ki: > 10000 nM
[2]; read-out: Ki
  Ki: 22.6 nM
[2]; read-out: pKi (converted)
  Ki: 16.2 nM
Homo sapiens [15]
  Ratio Ki: > 500
[4]
  Activity: 0.058
[16]; filed as agonist
  Activity: Active
Cerebral artery [17]
  Activity: Active
[18]
  Activity: inactive
[19]
  Activity: inactive

## CC[C@H](C)[C@H](NC(=O)[C@H](Cc1ccc(O)cc1)NC(=O)[C@@H](NC(=O)[C@H](CCCN=C(N)N)NC(=O)CNC)C(C)C)C(=O)N[C@@H](Cc1c[nH]cn1)C(=O)N1CCC[C@H]1C(=O)N[C@@H](C)C(=O)O
[20]
  Activity: Dose-dependent-effect
[21]
  Emax: 0.031 a.u.
[22]
  Activity: Dose-dependent-effect
[23]
  Emax: 0.043 a.u.
[16]
  Activity: inactive
[24]
  Activity: Active
Cerebral artery [25]
  Activity: inactive
[26]
  Activity: Active
[27]
  Activity: Active

## CC[C@H](C)[C@H](NC(=O)[C@H](Cc1ccc(O)cc1)NC(=O)[C@@H](NC(=O)[C@H](CCCNC(=N)N)NC(=O)CN(C)C(=O)CCCCCN1/C(=C\C=C\C2=[N+](C)c3ccccc3C2(C)C)C(C)(C)c2ccccc21)C(C)C)C(=O)N[C@@H](Cc1c[nH]cn1)C(=O)N1CCC[C@H]1C(=O)N[C@@H](C)C(=O)O
[1]; read-out: Ki
  Ki: 5430 nM
[1]; read-out: pKi (converted)
  Ki: 5130 nM
[2]; read-out: Ki
  Ki: 4.23 nM
[2]; read-out: pKi (converted)
  Ki: 3.31 nM
Homo sapiens [15]
  Ratio Ki: 1280
[4]
  Activity: 0.076
[16]; filed as agonist
  Activity: Active
[28]
  Activity: Active
Cerebral artery [17]
  Activity: Active
[18]; filed as agonist
  Activity: Active; Scarce Colocalization Of Compound Was Observed
[29]
  Activity: Active
[30]
  Activity: Active
